Data on 31 molecules can be found in the supplement of paper PMC11061612.

The subject of the test is U-698-M. The settings on record: B-Cell Non-Hodgkin's Lymphoma. In short, it runs like this:
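Cancer cell lines were dosed for 72 hours (final DMSO typically 0.2%) after 24 hours at 37°C and 5% CO2 in 1536-well plates containing 7.5 μl DMEM/F12 or RPMI with 10% FBS. Viability came from CellTiter-Glo 2.0 luminescence, scaled between blank-well and DMSO-well means, and dose responses were fitted to a two-parameter logistic curve with a non-linear mixed effects model. The single-agent IC50 was obtained from this fit.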

Where only a bound is given, the exact number is not on record here.

Take `O=C(Nc1ccc2[nH]nc(-c3ccncc3)c2c1)[C@@H]1CCN(CC(=O)N2CCN(c3ccc(-c4ncccn4)cc3)CC2)C1`: the “IC50, cell viability 72 h” value (max 5 µM) was over 5000 nM.
As to `O=c1[nH]cc(F)c(=O)[nH]1` [5-Fluorouracil], the “IC50, cell viability 72 h” value (max 20 µM) is over 20000 nM.
Take `CN(C)CCCOc1ccc(-c2ccc3ncc4c(c3c2)n(C2CCOCC2)c(=O)n4C)cn1` [AZD0156]: where the note is “max 3 µM”, the “IC50, cell viability 72 h” value was over 3000 nM.
For the molecule `CC(C)n1c(=O)n(C)c2cnc3cc(F)c(-c4ccc(OCCCN5CCCCC5)nc4)cc3c21` [AZD1390], the “IC50, cell viability 72 h” value (max 0.3 µM) is over 300 nM.
With `C=CCn1c(=O)c2cnc(Nc3ccc(N4CCN(C)CC4)cc3)nc2n1-c1cccc(C(C)(C)O)n1` [AZD1775], for the setting “max 3 µM”, the “IC50, cell viability 72 h” value was determined as 260 nM.
Turning to `CCN(CCO)CCCOc1ccc2c(Nc3cc(CC(=O)Nc4cccc(F)c4)[nH]n3)ncnc2c1` [AZD2811], the “IC50, cell viability 72 h” value (max 1 µM) was over 1000 nM.
With `CN(CCO)CC[C@H](CSc1ccccc1)Nc1ccc(S(=O)(=O)NC(=O)c2ccc(N3CCC([C@@H](O)c4ccccc4-c4ccc(Cl)cc4)CC3)cc2)cc1S(=O)(=O)C(F)(F)F` [AZD4320], the “IC50, cell viability 72 h” value (max 1 µM) was over 1000 nM.
Regarding `COc1nnc2ccc(N3CCC(c4ccc(OCCN5CCN(C)C(=O)[C@H]5C)cc4)CC3)nn12` [AZD5153], the “IC50, cell viability 72 h” value (max 1 µM) is 265 nM.
On to `NC1(C(=O)N[C@@H](CCO)c2ccc(Cl)cc2)CCN(c2ncnc3[nH]ccc23)CC1` [AZD5363], for which the “IC50, cell viability 72 h” value (max 10 µM) came out at 8270 nM.
In the case of `Cc1c2c(nn1C)CSCc1cc(n(C)n1)CSc1cc(c3ccccc3c1)OCCCc1c(C(=O)O)n(C)c3c-2c(Cl)ccc13` [AZD5991], the “IC50, cell viability 72 h” value (max 1 µM) worked out at 69.2 nM.
As to `C[C@@H]1COCCN1c1cc(C2([S@](C)(=N)=O)CC2)nc(-c2ccnc3[nH]ccc23)n1` [AZD6738], under “max 10 µM”, the “IC50, cell viability 72 h” value came to 2210 nM.
On to `Cc1cc2ncnn2cc1Nc1ncc2c(n1)n(C1CCOCC1)c(=O)n2C` [AZD7648], for which, for the setting “max 10 µM”, the “IC50, cell viability 72 h” value was over 10000 nM.
Consider `C[C@@H](Nc1cc(F)cc(F)c1)c1cc(C(=O)N(C)C)cc2c(=O)cc(N3CCOCC3)oc12` [AZD8186], for which the “IC50, cell viability 72 h” value (max 10 µM) is over 10000 nM.
Same read-out and setting: to `COc1cc(Nc2ncc3c(n2)-c2ccc(Cl)cc2C(c2c(F)cccc2OC)=NC3)ccc1C(=O)O` [Alisertib] belongs 8030 nM; to `N.N.O=C([O-])C1(C(=O)[O-])CCC1.[Pt+2]` [Carboplatin], over 10000 nM.
With `C[C@@H](Oc1cc(-c2cnn(C3CCNCC3)c2)cnc1N)c1c(Cl)ccc(F)c1Cl` [Crizotinib], where the note is “max 10 µM”, the “IC50, cell viability 72 h” value stood at 5060 nM.
As for `Cc1nc(Nc2ncc(C(=O)Nc3c(C)cccc3Cl)s2)cc(N2CCN(CCO)CC2)n1` [Dasatinib], under “max 2 µM”, the “IC50, cell viability 72 h” value is over 2000 nM.
For the molecule `COc1cccc2c1C(=O)c1c(O)c3c(c(O)c1C2=O)C[C@@](O)(C(=O)CO)C[C@@H]3O[C@H]1C[C@H](N)[C@H](O)[C@H](C)O1` [Doxorubicin], for the setting “max 1 µM”, the “IC50, cell viability 72 h” value was determined as 495 nM.
As to `COc1cc([C@@H]2c3cc4c(cc3[C@@H](O[C@@H]3O[C@@H]5CO[C@@H](C)O[C@H]5[C@H](O)[C@H]3O)[C@H]3COC(=O)[C@H]23)OCO4)cc(OC)c1O` [Etoposide], under “max 10 µM”, the “IC50, cell viability 72 h” value worked out at 4930 nM.
`COc1cc2ncnc(Nc3ccc(F)c(Cl)c3)c2cc1OCCCN1CCOCC1` [Gefitinib]: the “IC50, cell viability 72 h” value (max 10 µM) was over 10000 nM.
For `Nc1ccn([C@@H]2O[C@H](CO)[C@@H](O)C2(F)F)c(=O)n1` [Gemcitabine], the “IC50, cell viability 72 h” value (max 0.3 µM) was 130 nM.
With `CS(=O)(=O)CCNCc1ccc(-c2ccc3ncnc(Nc4ccc(OCc5cccc(F)c5)c(Cl)c4)c3c2)o1` [Lapatinib], under “max 10 µM”, the “IC50, cell viability 72 h” value was over 10000 nM.
Consider `NC1(c2ccc(-c3nc4ccn5c(=O)[nH]nc5c4cc3-c3ccccc3)cc2)CCC1` [MK-2206], for which the “IC50, cell viability 72 h” value (max 10 µM) is over 10000 nM.
On to `O=C(c1cc(Cc2n[nH]c(=O)c3ccccc23)ccc1F)N1CCN(C(=O)C2CC2)CC1` [Olaparib], for which the “IC50, cell viability 72 h” value (max 10 µM) is over 10000 nM.
Take `CC(=O)O[C@H]1C(=O)[C@@]2(C)[C@H]([C@H](OC(=O)c3ccccc3)[C@]3(O)C[C@H](OC(=O)[C@H](O)[C@@H](NC(=O)c4ccccc4)c4ccccc4)C(C)=C1C3(C)C)[C@]1(OC(C)=O)CO[C@@H]1C[C@@H]2O` [Paclitaxel]: the “IC50, cell viability 72 h” value (max 3 µM) was determined as 5.9 nM.
Regarding `CC(=O)c1c(C)c2cnc(Nc3ccc(N4CCNCC4)cn3)nc2n(C2CCCC2)c1=O` [Palbociclib], the “IC50, cell viability 72 h” value (max 10 µM) is over 10000 nM.
Turning to `COc1cccc(OCCCN)c1-c1cc(Nc2cnc(C#N)cn2)n[nH]1` [Prexasertib], under “max 1 µM”, the “IC50, cell viability 72 h” value was determined as 11.1 nM.
Turning to `COc1cc2c(cc1OCCCCCOc1cc3c(cc1OC)C(=O)N1C=C(C)C[C@H]1C=N3)N=C[C@@H]1CC(C)=CN1C2=O` [SG3199], the “IC50, cell viability 72 h” value (max 0.001 µM) was over 1 nM.
`CCc1c2c(nc3ccc(O)cc13)-c1cc3c(c(=O)n1C2)COC(=O)[C@]3(O)CC` [SN-38]: where the note is “max 0.3 µM”, the “IC50, cell viability 72 h” value was determined as 22 nM.
With `N#Cc1cnc(Nc2cc(NC[C@H]3CNCCO3)c(C(F)(F)F)cn2)cn1` [SRA737], under “max 10 µM”, the “IC50, cell viability 72 h” value was 2860 nM.
For `C[C@@H](c1ccc2nccn2c1)n1nnc2ncc(-c3cnn(C)c3)nc21` [Savolitinib], the “IC50, cell viability 72 h” value (max 1 µM) is over 1000 nM.
